Source: PMC7465344 (Pharmaceuticals, 2020)
“And” between values parts separate entries of the source, which are not always exact repeats. Identical values can stand only once. Like-named read-outs stand apart in the source and are kept apart here.

Columns and labels:
[1] = target: T1, hA3 AR (Homo sapiens, UniProt P0DMS8); test: Competition binding of [125I]AB-MECA to hA3 AR in CHO cell membranes; conditions: for inhibition at 10 µM: read-out: hA3AR percentage of inhibition (I%)
T1 sequence (P0DMS8 1-318): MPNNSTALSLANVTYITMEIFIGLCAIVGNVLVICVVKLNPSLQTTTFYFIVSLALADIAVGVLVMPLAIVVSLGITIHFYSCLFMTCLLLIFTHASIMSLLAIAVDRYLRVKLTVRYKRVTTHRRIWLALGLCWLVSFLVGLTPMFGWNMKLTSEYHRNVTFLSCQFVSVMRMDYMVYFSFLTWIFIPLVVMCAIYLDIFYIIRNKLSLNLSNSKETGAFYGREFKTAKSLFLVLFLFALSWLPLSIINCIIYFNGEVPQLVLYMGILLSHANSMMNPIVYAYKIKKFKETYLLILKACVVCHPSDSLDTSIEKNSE
Description: (§1) For membrane preparation, the cells were washed with phosphate-buffered saline and scraped off T75 flasks in an ice-cold hypotonic buffer (5 mMTris-HCl, 1 mM EDTA, pH 7.4). The cell suspensions were homogenized with a Polytron, centrifuged for 30 min at 40,000× g at 4 °C and the resulting membrane pellets were used for competition binding experiments [44].
(§2) Non-specific binding was defined as binding in the presence of 1 μM DPCPX and was always <10% of the total binding [44]. […] Non-specific binding was defined as binding in the presence of 1 μM ABMECA and was always < 10% of the total binding [46]. Bound and free radioactivity were separated by filtering the assay mixture through Whatman GF/B glass fiber filters using a Brandel cell harvester (Brandel Instruments, Unterföhring, Germany).
(§3) The protein concentration was determined according to a Bio-Rad method with bovine albumin as a standard reference. […] Ki and IC50 values were calculated by the non-linear regression analysis using the equation for a sigmoid concentration-response curve (Graph-PAD Prism, San Diego, CA, USA).

[2] = target: T2, hA1 AR (Homo sapiens, UniProt P30542); test: Competition binding of [3H]DPCPX to hA1 AR in CHO cell membranes; conditions: for hA1AR Ki: displacement of [3H]DPCPX, CHO cells, mean ± SEM, n = 3–6; for inhibition at 10 µM: read-out: hA1AR percentage of inhibition (I%)
T2 sequence (P30542 1-326): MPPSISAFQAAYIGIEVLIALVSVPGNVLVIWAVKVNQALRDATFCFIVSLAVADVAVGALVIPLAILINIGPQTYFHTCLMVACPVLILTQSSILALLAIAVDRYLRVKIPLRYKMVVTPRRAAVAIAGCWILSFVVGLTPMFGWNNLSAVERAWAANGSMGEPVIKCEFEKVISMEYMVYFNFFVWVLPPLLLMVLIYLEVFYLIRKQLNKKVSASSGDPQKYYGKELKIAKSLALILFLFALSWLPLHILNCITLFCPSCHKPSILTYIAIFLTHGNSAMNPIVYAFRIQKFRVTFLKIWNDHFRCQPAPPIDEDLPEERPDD
Description: as §1, §2, §3

[3] = target: T3, hA2A AR (Homo sapiens, UniProt P29274); test: Competition binding of [3H]ZM241385 to hA2A AR in CHO cell membranes
T3 sequence (P29274 whole entry): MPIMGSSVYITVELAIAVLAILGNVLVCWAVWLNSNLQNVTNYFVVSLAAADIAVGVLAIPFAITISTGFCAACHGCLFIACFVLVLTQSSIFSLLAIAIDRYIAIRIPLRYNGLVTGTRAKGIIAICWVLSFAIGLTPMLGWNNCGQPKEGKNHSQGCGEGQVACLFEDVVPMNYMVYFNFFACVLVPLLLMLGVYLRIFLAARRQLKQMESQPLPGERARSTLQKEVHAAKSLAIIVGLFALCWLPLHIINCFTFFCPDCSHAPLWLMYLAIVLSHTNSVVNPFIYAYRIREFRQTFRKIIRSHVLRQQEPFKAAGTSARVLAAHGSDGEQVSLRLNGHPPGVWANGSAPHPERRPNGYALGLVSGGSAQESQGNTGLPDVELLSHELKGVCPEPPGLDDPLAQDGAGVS
Description: as §1, §2, §3

[4] = target: T4, hA2B AR (Homo sapiens, UniProt P29275); test: Inhibition of NECA stimulated adenylyl cyclase activity (cAMP assay) in CHO cells expressing hA2B receptor; format: cell-based; conditions: for inhibition at 10 µM: CHO, at 10 μM of tested compound, cAMP assay, read-out: hA2BAR percentage of inhibition (I%); for IC50: NECA stimulated cAMP, hA2B CHO cells, read-out: hA2BAR IC50 (potency in cAMP assay)
T4 construct: expressed in transfected cells; host or cells: CHO cells
T4 sequence (P29275 1-332): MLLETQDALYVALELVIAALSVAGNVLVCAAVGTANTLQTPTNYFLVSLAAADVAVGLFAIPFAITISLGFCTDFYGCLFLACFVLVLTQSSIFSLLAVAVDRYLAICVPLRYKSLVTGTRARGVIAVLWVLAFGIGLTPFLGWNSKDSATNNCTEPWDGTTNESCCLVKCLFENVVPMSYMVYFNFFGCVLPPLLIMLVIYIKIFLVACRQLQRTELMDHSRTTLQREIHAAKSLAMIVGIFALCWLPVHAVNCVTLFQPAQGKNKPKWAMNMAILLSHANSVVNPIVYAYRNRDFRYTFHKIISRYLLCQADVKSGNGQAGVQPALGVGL
Description: At the end of the experiments, plates were read with the Perkin Elmer EnSight Multimode Plate Reader.

[5] = target: T3, hA2A AR; test: Cyclic AMP assay in CHO cells expressing hA2A AR (modulation of basal cAMP); conditions: for Pharmacological Behavior / Intrinsic Activity: cyclic AMP assay, hA2A CHO cells; for Intrinsic Activity: mean ± SEM
Description: CHO cells transfected with hAR subtypes were washed with phosphate-buffered saline, detached with trypsin, and centrifuged for 10 min at 200× g. […] At the end of the experiments, plates were read with the Perkin Elmer EnSight Multimode Plate Reader.
Ki and IC50 values were calculated by the non-linear regression analysis using the equation for a sigmoid concentration-response curve (Graph-PAD Prism, San Diego, CA, USA).

Structure (SMILES)	Ki ([1]; read-out: hA3AR Ki, displacement of [125I]AB-MECA, CHO cells, mean ± SEM, n = 3–6) [nM]	Ki [1] [nM]	inhibition at 10 µM [1] [%]	melting point [°C]	Ki [2] [nM]	Ki [3] [nM]	inhibition at 10 µM [4] [%]	IC50 [4] [nM]	hA1AR Ki [2]	Ki ([3]; read-out: hA2AAR Ki, displacement of [3H]ZM241385, CHO cells, mean ± SEM, n = 3–6)	IC50 [5] [nM]	Pharmacological Behavior [5]	Intrinsic Activity [5]	inhibition at 10 µM [2] [%]	inhibition at 10 µM ([3]; read-out: hA2AAR percentage of inhibition (I%)) [%]
Nc1nc(NCCc2ccc(O)cc2)nc2nc(-c3ccco3)nn12 [ZM 241385, reference compound]	672 ± 51	–	–	–	–	–	–	–	–	–	–	–	–	–	–
COCCOc1ccc(N2CCN(c3nc(N)c4nc(-c5ccco5)sc4n3)CC2)cc1 [compound 5, 2-(Furan-2-yl)-5-(4-(4-(2-methoxyethoxy)phenyl)piperazin-1-yl)thiazolo[5,4-d]pyrimidin-7-amine]	–	127 ± 15	–	–	2350 ± 213	326 ± 27	7	> 10000	–	–	–	–	–	–	–
Nc1nc(N2CCN(CCN3CCCC3)CC2)nc2sc(-c3ccco3)nc12 [compound 8, 2-(Furan-2-yl)-5-(4-(2-(pyrrolidin-1-yl)ethyl)piperazin-1-yl)thiazolo[5,4-d]pyrimidin-7-amine]	–	> 10000	25	–	638 ± 56	–	19	> 10000	–	–	–	–	–	–	–
COCCOc1ccc(N2CCN(CCNc3nc(N)c4nc(-c5ccco5)sc4n3)CC2)cc1 [compound 14, 2-(Furan-2-yl)-N^5-(2-(4-(4-(2-methoxyethoxy)phenyl)piperazin-1-yl)ethyl)thiazolo[5,4-d]pyrimidine-5,7-diamine]	–	1490 ± 126	–	–	452 ± 38	18.3 ± 1.9	17	> 10000	–	–	15.2 ± 1.3	Inverse agonist	−51 ± 5	–	–
Nc1nc(NCCN2CCN(C(=O)c3ccco3)CC2)nc2sc(-c3ccco3)nc12 [compound 15, (4-(2-((7-Amino-2-(furan-2-yl)thiazolo[5,4-d]pyrimidin-5-yl)amino)ethyl)piperazin-1-yl)(furan-2-yl)methanone]	–	> 10000	23	–	436 ± 36	10.8 ± 1	16	> 10000	–	–	9.42 ± 0.87	Inverse agonist	−67 ± 5	–	–
CCOC(=O)c1ccc(N2CCN(CCNc3nc(N)c4nc(-c5ccco5)sc4n3)CC2)cc1 [compound 16, Ethyl 4-(4-(2-((7-amino-2-(furan-2-yl)thiazolo[5,4-d]pyrimidin-5-yl)amino)ethyl)piperazin-1-yl) benzoate]	–	> 10000	34	–	> 10000	264 ± 24	26	> 10000	–	–	–	–	–	31	–
CCOC(=O)c1ccc(CNc2nc(N)c3nc(-c4ccco4)sc3n2)cc1 [compound 17, Ethyl 4-(((7-amino-2-(furan-2-yl)thiazolo[5,4-d]pyrimidin-5-yl)amino)methyl)benzoate]	–	> 10000	28	–	> 10000	> 10000	17	> 10000	–	–	–	–	–	29	33
COCCN1CCC(CNc2nc(N)c3nc(-c4ccco4)sc3n2)CC1 [compound 18, 2-(Furan-2-yl)-N^5-((1-(2-methoxyethyl)piperidin-4-yl)methyl)thiazolo[5,4-d]pyrimidine-5,7-diamine]	–	> 10000	28	–	524 ± 41	802 ± 73	11	> 10000	–	–	–	–	–	–	–

Results, then the compound that gave them:

Ki ([1]; read-out: hA3AR Ki, displacement of [125I]AB-MECA, CHO cells, mean ± SEM, n = 3–6) [nM]	Ki [1] [nM]	inhibition at 10 µM [1] [%]	melting point [°C]	Ki [2] [nM]	Ki [3] [nM]	inhibition at 10 µM [4] [%]	IC50 [4] [nM]	hA1AR Ki [2]	Ki ([3]; read-out: hA2AAR Ki, displacement of [3H]ZM241385, CHO cells, mean ± SEM, n = 3–6)	IC50 [5] [nM]	Pharmacological Behavior [5]	Intrinsic Activity [5]	inhibition at 10 µM [2] [%]	inhibition at 10 µM ([3]; read-out: hA2AAR percentage of inhibition (I%)) [%]	Structure (SMILES)
–	> 10000	8	197 to 199	586 ± 37	594 ± 48	21	> 10000	–	–	–	–	–	–	–	Nc1nc(N2CCC(Cc3ccccc3)CC2)nc2sc(-c3ccco3)nc12 [compound 1, 5-(4-Benzylpiperidin-1-yl)-2-(furan-2yl)thiazolo[5,4-d]pyrimidin-7-amine]
–	> 10000	18	–	296 ± 22	–	15	> 10000	–	–	–	–	–	–	–	Nc1nc(N2CCN(c3ccccc3)CC2)nc2sc(-c3ccco3)nc12 [compound 2, 2-(Furan-2-yl)-5-(4-phenylpiperazin-1-yl)thiazolo[5,4-d]pyrimidin-7-amine]
–	868 ± 82	–	181 to 183	180 ± 15	58 ± 5	26	–	good affinities	–	–	–	–	–	–	Nc1nc(N2CCN(Cc3ccccc3)CC2)nc2sc(-c3ccco3)nc12 [compound 3, 5-(4-Benzylpiperazin-1-yl)-2-(furan-2-yl)thiazolo[5,4-d]pyrimidin-7-amine]
–	197 ± 16	–	203 to 204	1210 ± 114	237 ± 17	11	> 10000	–	–	–	–	–	–	–	Nc1nc(N2CCN(CCc3ccccc3)CC2)nc2sc(-c3ccco3)nc12 [compound 4, 2-(Furan-2-yl)-5-(4-phenethylpiperazin-1-yl)thiazolo[5,4-d]pyrimidin-7-amine]
–	816 ± 74	–	227 to 229	2770 ± 249	137 ± 11	10	> 10000	–	–	–	–	–	–	–	Nc1nc(N2CCN(C(=O)c3ccco3)CC2)nc2sc(-c3ccco3)nc12 [compound 6, (4-(7-Amino-2-(furan-2-yl)thiazolo[5,4-d]pyrimidin-5-yl)piperazin-1-yl)(furan-2-yl)methanone]
–	> 10000	34	183 to 186	345 ± 28	29 ± 3	23	> 10000	–	–	–	–	–	–	–	CN(C)CCN1CCN(c2nc(N)c3nc(-c4ccco4)sc3n2)CC1 [compound 7, 5-(4-(2-(Dimethylamino)ethyl)piperazin-1-yl)-2-(furan-2-yl)thiazolo[5,4-d]pyrimidin-7-amine]
–	> 10000	15	–	102 ± 9	–	13	> 10000	good affinities	8.6 nM and 8.62 nM	7.42 ± 0.68	Inverse agonist	−52 ± 4	–	–	Nc1nc(NCCN2CCN(c3ccccc3)CC2)nc2sc(-c3ccco3)nc12 [compound 11, 2-(Furan-2-yl)-N^5-(2-(4-phenylpiperazin-1-yl)ethyl)thiazolo[5,4-d]pyrimidine-5,7-diamine]
–	> 10000	33	–	522 ± 47	37 ± 3	29	> 10000	–	–	–	–	–	–	–	Nc1nc(NCCN2CCN(CCc3ccccc3)CC2)nc2sc(-c3ccco3)nc12 [compound 13, 2-(Furan-2-yl)-N^5-(2-(4-phenethylpiperazin-1-yl)ethyl)thiazolo[5,4-d]pyrimidine-5,7-diamine]
–	> 10000	35	–	365 ± 29	15.2 ± 1.7	18	> 10000	–	–	14.8 ± 1.4	Inverse agonist	−64 ± 4	–	–	Nc1nc(NCC2CCN(Cc3ccccc3)CC2)nc2sc(-c3ccco3)nc12 [compound 19, N^5-((1-Benzylpiperidin-4-yl)methyl)-2-(furan-2-yl)thiazolo[5,4-d]pyrimidine-5,7-diamine]
–	> 10000	21	–	247 ± 18	483 ± 34	27	> 10000	–	–	–	–	–	–	–	Nc1nc(NCC2CCN(CCc3ccccc3)CC2)nc2sc(-c3ccco3)nc12 [compound 21, 2-(Furan-2-yl)-N^5-((1-phenethylpiperidin-4-yl)methyl)thiazolo[5,4-d]pyrimidine-5,7-diamine]
